Data from publication PMC4085509, “Extended treatment of Cushing’s disease with pasireotide: results from a 2-year, Phase II study” (Pituitary, 2013).
Where two headings read alike, the source gives them in different places. *1 amine or outer side, *2 acyl side, *3 side chain or, on linkers, in order; H or OH if unused. Where a SMILES comes first, the peptide text is derived from it. Side-chain parts run from the residue outwards. [ ]: non-standard residue; d: D form. The star is where a group is joined. Ethylenediamine = C(CN[*:2])N[*:1]; Hyp = O=C(O)[C@@H]1C[C@@H](O)CN1; Phg = N[C@H](C(=O)O)c1ccccc1; CO = O=C([*:1])[*:2]; Bn = c1ccc(C*)cc1

Key:
sst3 = system: sst3; set-up: method as in PMID 11980628; conditions: cited from earlier work
sst1 = conditions: cited from earlier work
[1] = system: urinary free cortisol (UFC); conditions: 15-day core study, 600 μg sc bid, cited from earlier work
[2] = HbA1c and fasting plasma glucose monitoring; type: in vivo, human
Description: (§1) Safety was assessed by recording all AEs, as well as by regular monitoring of vital signs, physical condition, body weight, hematology and blood chemistry. HbA1c levels were recorded at extension baseline and then every 16 weeks. HbA1c categories were: <upper limit of normal (ULN; normal defined as <5.7 %), between the ULN and 7 %, between 7 and 9 %, and over 9 %.
(§2) Patient visits occurred every 2 weeks for the first 3 months and then every 3 months for assessments of UFC, serum cortisol, plasma ACTH, hematology, blood chemistry, HbA1c, electrocardiogram (ECG) and vital signs. Patients were referred to a diabetes specialist for evaluation and appropriate management if any of the following were present: […]

[3] = system: patients with Cushing's disease; assay: Electrocardiogram intervals; type: in vivo, human; conditions: number of patients
From the text: as §2

sst5 = system: sst5; set-up: method as in PMID 11980628; conditions: cited from earlier work
[4] = system: patients with Cushing's disease; assay: Adverse events and discontinuations in the extension study; type: in vivo, human
Description: as §1

serum cortisol = assay: Serum cortisol, ECLIA (Elecsys), pre-morning-dose samples; type: in vivo, human
Description: (§3) Blood samples for serum cortisol, plasma ACTH and pharmacokinetic assessments were collected before the morning pasireotide dose on study visit days. UFC assays were conducted in two central laboratories, one in Europe and the other in the US. Serum cortisol and plasma ACTH assays were assessed centrally by one laboratory (see Supplementary Material for further details).
(§4) UFC levels were measured with two 24-hour urine specimens collected in the 48 hours prior to core baseline and at study visits during the extension study. Serum cortisol was measured with electrochemiluminescence immunoassay (ECLIA), using the Elecsys® cortisol reagent kit (Roche Diagnostics, Indianapolis, IN, USA), which has a lower limit of quantification (LLOQ) of […] (0.018 μg/dL) and intra- and inter-assay coefficients of variation of 1.2% and 1.4%, respectively. UFC levels were measured with ECLIA, using the Elecsys® cortisol reagent kit with prior dichloromethane extraction to reduce the amount of cortisol metabolites and conjugates.

plasma ACTH = assay: Plasma ACTH, Immulite 2000 ACTH kit, pre-morning-dose samples; type: in vivo, human; conditions: Day 15, n=18, normal <10
Description: as §3
(§5) Plasma ACTH was assayed with the Immulite® 2000 ACTH kit (DPC, Los Angeles, CA, USA), which has a lower limit of detection of 9 pg/mL (1.98 pmol/L) and intra- and inter-assay coefficients of variation of 7.7% and 8.5%, respectively. Pasireotide plasma concentrations were measured using a validated radioimmunoassay with an LLOQ of 150 pg/mL.

[5] = Trough plasma concentration of pasireotide, radioimmunoassay; type: in vivo, human; conditions: for level at 4320 h: human, read-out: Ctrough, mean ± SD
Description: (§6) The primary efficacy outcome was the proportion of patients with normalized UFC levels after 6 months of treatment (normal UFC range: 55–276 nmol/24 h; 20–100 μg/24 h). Secondary objectives included assessment of the safety and tolerability of multiple doses of pasireotide and trough plasma concentrations of pasireotide after chronic dosing.
as §3, §5

[6] = system: urinary free cortisol (UFC); assay: 24-h urinary free cortisol (UFC), ECLIA after dichloromethane extraction, extension study; type: in vivo, human
Description: as §6
Patients were classified as ‘UFC responders’ if their mean UFC level at month 6 was in the normal range; as ‘UFC reducers’ if their mean UFC level at month 6 was lower than that at core study baseline but not within normal limits; and as ‘UFC non-reducers’ if their mean UFC level at month 6 was equal to or higher than that at core study baseline or if the mean UFC level at month 6 was missing. Patients who discontinued prior to month 6 were classified as non-responders.
as §3, §4

sst2 = system: sst2; set-up: method as in PMID 11980628; conditions: cited from earlier work
[7] = at some point during the extension, of six shifted
[8] = of 16 with normal FPG at extension baseline, at some point
[9] = safety population n=19, regardless of study-drug relationship

In the case of `NCCCC[C@@H]1NC(=O)[C@@H](Cc2c[nH]c3ccccc23)NC(=O)[C@H](c2ccccc2)NC(=O)[C@@H]2C[C@@H](OC(=O)NCCN)CN2C(=O)[C@H](Cc2ccccc2)NC(=O)[C@H](Cc2ccc(OCc3ccccc3)cc2)NC1=O` [pasireotide] (cyclo([Hyp]([CO-Ethylenediamine])[Phg][dW]KY(Bn)F)), the “Affinity for sst3” value (sst3) is given as “high affinity”, the “Affinity for sst1” value (sst1) is given as “high affinity” and the “Proportion of patients with reduced UFC levels” value ([1]; 22/29 patients) is given as 76%. For the same compound, the “Proportion of patients with normalized UFC” value ([1]; five patients) was 17%, the “Patients with HbA1c shifted to a higher category with levels <7%” value [2, 7] was “three” and the “Patients with HbA1c shifted to between 7% and 9%” value [2, 7] was “three”. For the same compound, the “Patients with post-baseline HbA1c shifted to a higher category” value ([2]; at some point during the extension, eight with baseline values) was “Six”, the “Shifts to levels of HbA1c >9%” value ([2]; during the extension) was “no shifts” and the “Patients with an increase in fasting plasma glucose level at some point during the extension” value ([2]; in vivo) was “All patients”. The “Patients with improved FPG levels at their last assessment” value ([2]; in vivo) was “All patients”, the “Patients whose FPG shifted to between 100 and <126 mg/dL (5.6 to <7.0 mmol/L)” value [2, 8] was “six” and the “Patients whose FPG shifted to between 126 and <200 mg/dL (7.0 to <11.1 mmol/L)” value [2, 8] was “four”. For the same compound, the “Patients whose FPG shifted to ≥200 mg/dL (≥11.1 mmol/L)” value [2, 8] was “six”, the “Patients with HbA1c shifted to >ULN but <7% at last assessment” value ([2]; of five remaining higher) was “four” and the “Patients with HbA1c shifted to between 7% and 9% at last assessment” value ([2]; of five remaining higher) was “one”. For the same compound, the “Patients remaining at a higher post-baseline HbA1c level at last assessment” value ([2]; of the six shifted) was “Five”, the “Newly occurring QT of 450–480 ms” value [3] was “One patient” and the “Newly occurring QTcB of 450–480 ms” value [3] was “another patient”. The “QRS interval of >110 ms (not clinically significant)” value [3] was “one patient”, the “Affinity for sst5” value (sst5) was “highest affinity” and the “Hyperglycemia-related AEs, proportion of patients” value ([4]; 13/19, treatment period) was 68%. The “Deaths during the study” value ([4]; in vivo) was “No patients died”, the “Patients with grade 4 AEs” value ([4]; increased γ-glutamyltransferase, type 2 diabetes mellitus, both suspected drug related) was “Two” and the “Patients with at least one AE during the study” value ([4]; n=19) was “All patients”. The “Patients reporting a hyperglycemia-related adverse event” value ([4]; of 19) was “Thirteen”, the “Discontinuation because of AE (new-onset type 2 diabetes mellitus)” value ([4]; one of 19 patients) was 5.3% and the “Adverse event: Abdominal pain” value [4, 9] was 9 (47.4) n (%). The “Adverse event: Diarrhea” value [4, 9] was 13 (68.4) n (%), the “Adverse event: Dizziness” value [4, 9] was 5 (26.3) n (%) and the “Adverse event: Fatigue” value [4, 9] was 5 (26.3) n (%). The “Adverse event: Headache” value [4, 9] was 7 (36.8) n (%), the “Adverse event: Hyperglycemia” value [4, 9] was 11 (57.9) n (%) and the “Adverse event: Injection-site pain” value [4, 9] was 6 (31.6) n (%). For the same compound, the “Adverse event: Injection-site pruritus” value [4, 9] was 5 (26.3) n (%), the “Adverse event: Nausea” value [4, 9] was 12 (63.2) n (%) and the “Discontinuation because of unsatisfactory therapeutic effect” value ([4]; three of 19 patients, after 5–10 months) was 15.8%. The “Discontinuation because of abnormal laboratory value” ([4]; two of 19 patients: one increased HbA1c and glucose, one elevated UFC) was 10.5%, the “Serum cortisol, mean ± SD” value (serum cortisol; Day 15, n=18, normal 221–690 (09:00 h)) was 698 ± 161 nmol/L and the “Serum cortisol, mean ± SD” value (serum cortisol; Month 6, n=11) was 559 ± 300 nmol/L. The “Plasma ACTH, mean ± SD” value (plasma ACTH) was 12.4 ± 8.9 pmol/L, the Ctrough ([5]; Month 6, UFC non-reducers, n=1) was 5.2 ng/mL and the level at 4320 h ([5]; Month 6, UFC reducers, n=6, SD) was 19.1 ± 10.9 ng/mL. The level at 4320 h ([5]; Month 6, UFC responders, n=4, LLOQ 150 pg/mL, SD) was 17.4 ± 11.6 ng/mL, the “UFC, mean ± SD” value ([6]; Day 15, n=17, primary efficacy population, normal 55–276) was 522 ± 302 nmol/24 h and the “Proportion of patients with normal UFC levels (UFC responders)” value ([6]; Month 6, 4 of 18 patients, primary efficacy analysis, 95 % CI 6.4–47.6) was 22.2%. For the same compound, the “Proportion of patients with reduction in mean UFC but not to within normal range (UFC reducers)” value ([6]; Month 6, 6 of 18 patients) was 33.3%, the “Proportion of patients with lower UFC than at core baseline” value ([6]; Month 6, 10 of 18 patients) was 56% and the “UFC, mean ± SD” value ([6]; Month 6, n=11, primary efficacy population) was 421 ± 340 nmol/24 h. The “UFC, mean ± SD” value ([6]; Month 12, n=4, primary efficacy population) was 398 ± 220 nmol/24 h, the “UFC, mean ± SD” value ([6]; Month 24, n=4, primary efficacy population) was 514 ± 456 nmol/24 h and the “Number of patients with >50 % reduction in mean UFC from core baseline” value ([6]; Month 24, of four patients on study drug) was “three”. For the same compound, the “Number of patients with normalized UFC” value ([6]; Month 24, of the four patients who remained on study drug) was “one” and the “Affinity for sst2” value (sst2) was “high affinity”.
